# Measurements as given in patent publication US9833497B2, “Human originated EGF domain proteins and use of the same” (CHENGDU SOURCEBIO LIMITED-LIABILITY COMPANY, priority 2013, dated 2017).
# Tests used:
# Format in all cases: cell-based
# E. coli DH5α = experiment: Antibacterial activity: MIC and growth curve against E. coli DH5α in 96-well plate; details: minimal inhibitory concentration against E. coli DH5α; 96-well plate, 5×10^5 CFU/mL, 37° C., judged after 8 h
# How it was run: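 Log-phase bacteria (OD600 ~0.5) resuspended in LB at 5×10^5 CFU/mL, exposed to recombinant protein at 50, 25, 12.5 μg/mL final in triplicate, 37 °C shaking at 175 rpm. OD600 read every 30 min; MIC is lowest concentration showing no growth.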
# E. coli BL21 = experiment: MIC against Gram-negative bacteria: E. coli BL21; details: for MIC (μg/mL) E. coli BL21 / MIC: E. coli BL21
# How it was run: (§1)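 LB broth cultures at McFarland 0.5, spun down, resuspended, diluted to 5×10^5 CFU/mL final. Two-fold serial dilutions of purified human EGF domain proteins, triplicate. 37° C, 175 rpm shaking. Endpoint: no visible growth.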
# Pseudomonas aeruginosa = experiment: MIC against Gram-negative bacteria: Pseudomonas aeruginosa; details: for MIC (μg/mL) P. aeruginosa / MIC: P. aeruginosa
# How it was run: as §1
# Klebsiella pneumonia = experiment: MIC against Gram-negative bacteria: Klebsiella pneumonia; details: for MIC (μg/mL) K. pneumonia / MIC: K. pneumonia
# How it was run: as §1
# Enterobacter cloacae = experiment: MIC against Gram-negative bacteria: Enterobacter cloacae; details: for MIC (μg/mL) E. cloacae / MIC: E. cloacae
# How it was run: as §1
# Aeromonas hydrophila = experiment: MIC against Gram-negative bacteria: Aeromonas hydrophila; details: for MIC (μg/mL) A. hydrophila / MIC: A. hydrophila
# How it was run: as §1
# Citrobacter diversus = experiment: MIC against Gram-negative bacteria: Citrobacter diversus; details: for MIC (μg/mL) C. diversus / MIC: C. diversus
# How it was run: as §1
# Moraxella catarrhalis = experiment: MIC against Gram-negative bacteria: Moraxella catarrhalis; details: for MIC (μg/mL) M. catarrhalis / MIC: M. catarrhalis
# How it was run: as §1
# Proteus mirabilis = experiment: MIC against Gram-negative bacteria: Proteus mirabilis; details: for MIC (μg/mL) P. mirabilis / MIC: P. mirabilis
# How it was run: as §1
# Proteus vulgaris = experiment: MIC against Gram-negative bacteria: Proteus vulgaris; details: for MIC (μg/mL) P. vulgaris / MIC: P. vulgaris
# How it was run: as §1
# Serratia marcescens = experiment: MIC against Gram-negative bacteria: Serratia marcescens; details: for MIC (μg/mL) S. marcescens / MIC: S. marcescens
# How it was run: as §1
# [1] = 10 h cultivation at 37° C., 5×10^5 CFU/mL
# [2] = 10 h cultivation at 37° C., 5×10^5 CFU/mL, two-fold serial dilution
# [3] = 96-well plate, 5×10^5 CFU/mL, 37° C., 10 h
substance,measurement,setting,value
PRT759 (RVDYCLLSDHGCEYSCVNMDRSFACQCPEGHVLRSDGKTCA; listed as Homo sapiens),MIC,E. coli DH5α,25 µg/mL
same,MIC (μg/mL) E. coli BL21,E. coli BL21; [1],12.5 µg/mL
same,MIC (μg/mL) P. aeruginosa,Pseudomonas aeruginosa; [1],25 µg/mL
same,MIC (μg/mL) K. pneumonia,Klebsiella pneumonia; [1],12.5 µg/mL
same,MIC (μg/mL) E. cloacae,Enterobacter cloacae; [1],12.5 µg/mL
same,MIC (μg/mL) A. hydrophila,Aeromonas hydrophila; [1],12.5 µg/mL
same,MIC (μg/mL) C. diversus,Citrobacter diversus; [1],12.5 µg/mL
same,MIC (μg/mL) M. catarrhalis,Moraxella catarrhalis; [1],25 µg/mL
same,MIC (μg/mL) P. mirabilis,Proteus mirabilis; [1],12.5 µg/mL
same,MIC (μg/mL) P. vulgaris,Proteus vulgaris; [1],12.5 µg/mL
same,MIC (μg/mL) S. marcescens,Serratia marcescens; [1],25 µg/mL
PRT874 (CNCNQIGSVHDRCNETGFCECREGAAGPKCDDCLPTHYWRQGCYP; listed as Homo sapiens),MIC,E. coli DH5α,12.5 µg/mL
same,MIC (μg/mL) E. coli BL21,E. coli BL21; [1],25 µg/mL
same,MIC (μg/mL) P. aeruginosa,Pseudomonas aeruginosa; [1],12.5 µg/mL
same,MIC (μg/mL) K. pneumonia,Klebsiella pneumonia; [1],12.5 µg/mL
same,MIC (μg/mL) E. cloacae,Enterobacter cloacae; [1],12.5 µg/mL
same,MIC (μg/mL) A. hydrophila,Aeromonas hydrophila; [1],12.5 µg/mL
same,MIC (μg/mL) C. diversus,Citrobacter diversus; [1],12.5 µg/mL
same,MIC (μg/mL) M. catarrhalis,Moraxella catarrhalis; [1],25 µg/mL
same,MIC (μg/mL) P. mirabilis,Proteus mirabilis; [1],12.5 µg/mL
same,MIC (μg/mL) P. vulgaris,Proteus vulgaris; [1],12.5 µg/mL
same,MIC (μg/mL) S. marcescens,Serratia marcescens; [1],12.5 µg/mL
PRT1006 (PLSSCQKAALSQGIDVSSLCHNGGLCVDSGPSYFCHCPPGFQGSLCQ; listed as Homo sapiens),MIC,E. coli DH5α,12.5 µg/mL
same,MIC,E. coli BL21; 10 h cultivation at 37° C.,50 µg/mL
same,MIC,Pseudomonas aeruginosa; 10 h cultivation at 37° C.,12.5 µg/mL
same,MIC,Klebsiella pneumonia; 10 h cultivation at 37° C.,50 µg/mL
same,MIC,Enterobacter cloacae; 10 h cultivation at 37° C.,12.5 µg/mL
same,MIC,Aeromonas hydrophila; 10 h cultivation at 37° C.,50 µg/mL
same,MIC,Citrobacter diversus; 10 h cultivation at 37° C.,25 µg/mL
same,MIC,Moraxella catarrhalis; 10 h cultivation at 37° C.,12.5 µg/mL
same,MIC,Proteus mirabilis; 10 h cultivation at 37° C.,25 µg/mL
same,MIC,Proteus vulgaris; 10 h cultivation at 37° C.,50 µg/mL
same,MIC,Serratia marcescens; 10 h cultivation at 37° C.,25 µg/mL
PRT1036 (VEDKCEKACRPEEECLALNSTWGCFCRQDLNSSDVHSLQPQLDCG; listed as Homo sapiens),MIC,E. coli DH5α,25 µg/mL
same,MIC,E. coli BL21; 10 h cultivation at 37° C.,50 µg/mL
same,MIC,Pseudomonas aeruginosa; 10 h cultivation at 37° C.,25 µg/mL
same,MIC,Klebsiella pneumonia; 10 h cultivation at 37° C.,25 µg/mL
same,MIC,Enterobacter cloacae; 10 h cultivation at 37° C.,50 µg/mL
same,MIC,Aeromonas hydrophila; 10 h cultivation at 37° C.,12.5 µg/mL
same,MIC,Citrobacter diversus; 10 h cultivation at 37° C.,50 µg/mL
same,MIC,Moraxella catarrhalis; 10 h cultivation at 37° C.,12.5 µg/mL
same,MIC,Proteus mirabilis; 10 h cultivation at 37° C.,50 µg/mL
same,MIC,Proteus vulgaris; 10 h cultivation at 37° C.,50 µg/mL
same,MIC,Serratia marcescens; 10 h cultivation at 37° C.,50 µg/mL
PRT160 (KIDYCILDPCRNGATCISSLSGFTCQCPEGYFGSACE; listed as Homo sapiens),MIC,E. coli DH5α,12.5 µg/mL
same,MIC (μg/mL) E. coli BL21,E. coli BL21; [1],25 µg/mL
same,MIC (μg/mL) P. aeruginosa,Pseudomonas aeruginosa; [1],12.5 µg/mL
same,MIC (μg/mL) K. pneumonia,Klebsiella pneumonia; [1],25 µg/mL
same,MIC (μg/mL) E. cloacae,Enterobacter cloacae; [1],25 µg/mL
same,MIC (μg/mL) A. hydrophila,Aeromonas hydrophila; [1],25 µg/mL
same,MIC (μg/mL) C. diversus,Citrobacter diversus; [1],12.5 µg/mL
same,MIC (μg/mL) M. catarrhalis,Moraxella catarrhalis; [1],25 µg/mL
same,MIC (μg/mL) P. mirabilis,Proteus mirabilis; [1],12.5 µg/mL
same,MIC (μg/mL) P. vulgaris,Proteus vulgaris; [1],25 µg/mL
same,MIC (μg/mL) S. marcescens,Serratia marcescens; [1],12.5 µg/mL
PRT1152 (HASPCSLMKCGNGGTCIESGTSVYCNCTTGWKGSFCT; listed as Homo sapiens),MIC,E. coli DH5α,12.5 µg/mL
same,MIC E. coli BL21,E. coli BL21; [2],25 µg/mL
same,MIC P. aeruginosa,Pseudomonas aeruginosa; [2],12.5 µg/mL
same,MIC K. pneumonia,Klebsiella pneumonia; [2],25 µg/mL
same,MIC E. cloacae,Enterobacter cloacae; [2],12.5 µg/mL
same,MIC A. hydrophila,Aeromonas hydrophila; [2],12.5 µg/mL
same,MIC C. diversus,Citrobacter diversus; [2],12.5 µg/mL
same,MIC M. catarrhalis,Moraxella catarrhalis; [2],12.5 µg/mL
same,MIC P. mirabilis,Proteus mirabilis; [2],12.5 µg/mL
same,MIC P. vulgaris,Proteus vulgaris; [2],25 µg/mL
same,MIC S. marcescens,Serratia marcescens; [2],50 µg/mL
PRT516 (CNCSGLGSKNEDPCFGPCICKENVEGGDCSRCKSGFFNLQEDNWKGCDE; listed as Homo sapiens),MIC,E. coli DH5α,12.5 µg/mL
same,MIC against E. coli BL21,E. coli BL21; [3],50 µg/mL
same,MIC against P. aeruginosa,Pseudomonas aeruginosa; [3],12.5 µg/mL
same,MIC against K. pneumonia,Klebsiella pneumonia; [3],50 µg/mL
same,MIC against E. cloacae,Enterobacter cloacae; [3],12.5 µg/mL
same,MIC against A. hydrophila,Aeromonas hydrophila; [3],25 µg/mL
same,MIC against C. diversus,Citrobacter diversus; [3],50 µg/mL
same,MIC against M. catarrhalis,Moraxella catarrhalis; [3],25 µg/mL
same,MIC against P. mirabilis,Proteus mirabilis; [3],12.5 µg/mL
same,MIC against P. vulgaris,Proteus vulgaris; [3],25 µg/mL
same,MIC against S. marcescens,Serratia marcescens; [3],50 µg/mL
